Test results from patent US20100137449A1, “SUBSTITUTED 1,3-CYCLOPENTADIONE MULTI-TARGET PROTEIN KINASE MODULATORS OF CANCER, ANGIOGENESIS AND THE INFLAMMATORY PATHWAYS ASSOCIATED THEREWITH” (METAPROTEOMICS, LLC, priority 2007, published 2010).

Key:
Test in all cases: KinaseProfiler Assay
FGFR3(h) = FGFR3(h) (Homo sapiens, UniProt P22607)
CK1δ(h) = CK1δ(h) (Homo sapiens, UniProt P48730)
Ron(h) = Ron(h) (Homo sapiens, UniProt Q04912)
Flt4(h) = Flt4(h) (Homo sapiens, UniProt P35916)
PKG1α(h) = target: T1, PKG1α(h) (Homo sapiens, UniProt Q13976)
T1 sequence (Q13976 1-671): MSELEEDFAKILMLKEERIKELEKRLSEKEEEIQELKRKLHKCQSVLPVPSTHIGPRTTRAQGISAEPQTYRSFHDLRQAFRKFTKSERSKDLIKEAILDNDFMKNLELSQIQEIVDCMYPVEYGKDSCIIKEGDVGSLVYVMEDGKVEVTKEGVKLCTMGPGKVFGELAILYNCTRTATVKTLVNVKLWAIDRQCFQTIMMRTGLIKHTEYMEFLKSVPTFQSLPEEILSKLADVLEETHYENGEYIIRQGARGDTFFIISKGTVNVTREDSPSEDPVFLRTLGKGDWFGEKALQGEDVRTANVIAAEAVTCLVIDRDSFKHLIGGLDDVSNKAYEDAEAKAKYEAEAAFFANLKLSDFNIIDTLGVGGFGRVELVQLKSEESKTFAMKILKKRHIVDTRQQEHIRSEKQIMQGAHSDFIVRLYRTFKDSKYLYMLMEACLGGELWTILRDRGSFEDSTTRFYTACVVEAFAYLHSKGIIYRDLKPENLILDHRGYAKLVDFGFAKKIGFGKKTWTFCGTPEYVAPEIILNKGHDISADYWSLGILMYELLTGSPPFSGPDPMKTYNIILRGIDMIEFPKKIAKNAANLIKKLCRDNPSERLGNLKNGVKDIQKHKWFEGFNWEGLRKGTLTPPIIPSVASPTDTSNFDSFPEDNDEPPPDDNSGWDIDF

JNK3(h) = JNK3(h) (Homo sapiens, UniProt P53779)
Sequence of JNK3(h) (P53779 whole entry): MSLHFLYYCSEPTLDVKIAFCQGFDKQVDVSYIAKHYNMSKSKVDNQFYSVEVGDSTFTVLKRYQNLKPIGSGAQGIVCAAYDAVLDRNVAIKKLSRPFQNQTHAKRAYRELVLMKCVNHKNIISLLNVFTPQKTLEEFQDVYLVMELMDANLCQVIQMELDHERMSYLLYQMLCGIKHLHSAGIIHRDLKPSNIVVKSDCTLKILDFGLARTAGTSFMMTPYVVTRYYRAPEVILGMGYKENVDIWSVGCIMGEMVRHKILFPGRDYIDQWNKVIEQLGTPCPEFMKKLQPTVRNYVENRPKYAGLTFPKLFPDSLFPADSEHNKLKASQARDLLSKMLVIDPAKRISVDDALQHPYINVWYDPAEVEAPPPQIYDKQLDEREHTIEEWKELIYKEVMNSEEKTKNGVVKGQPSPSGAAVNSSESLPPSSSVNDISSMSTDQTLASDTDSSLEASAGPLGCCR

TrkA(h) = TrkA(h) (Homo sapiens, UniProt P04629)
Sequence of TrkA(h) (P04629 33-796): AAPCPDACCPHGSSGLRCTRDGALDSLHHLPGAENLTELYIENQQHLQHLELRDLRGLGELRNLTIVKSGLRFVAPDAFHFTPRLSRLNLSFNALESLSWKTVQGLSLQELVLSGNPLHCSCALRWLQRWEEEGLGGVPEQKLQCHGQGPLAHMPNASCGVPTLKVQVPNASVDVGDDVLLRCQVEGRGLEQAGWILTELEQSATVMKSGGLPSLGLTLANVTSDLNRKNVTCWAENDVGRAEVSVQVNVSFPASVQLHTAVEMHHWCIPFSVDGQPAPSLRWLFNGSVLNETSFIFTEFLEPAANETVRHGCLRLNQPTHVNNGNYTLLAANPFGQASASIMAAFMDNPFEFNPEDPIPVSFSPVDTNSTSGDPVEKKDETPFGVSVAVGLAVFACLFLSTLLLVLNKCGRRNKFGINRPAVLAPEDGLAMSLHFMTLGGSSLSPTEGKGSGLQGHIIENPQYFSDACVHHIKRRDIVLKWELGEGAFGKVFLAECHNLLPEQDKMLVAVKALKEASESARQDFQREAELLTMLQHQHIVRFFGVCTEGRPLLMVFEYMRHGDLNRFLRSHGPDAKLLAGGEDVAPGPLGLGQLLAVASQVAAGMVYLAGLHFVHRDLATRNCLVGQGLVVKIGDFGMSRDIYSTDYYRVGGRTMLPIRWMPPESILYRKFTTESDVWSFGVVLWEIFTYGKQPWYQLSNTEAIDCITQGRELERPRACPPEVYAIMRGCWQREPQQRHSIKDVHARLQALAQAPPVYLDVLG

Txk(h) = target: T2, Txk(h) (Homo sapiens, UniProt P42681)
T2 sequence (P42681 1-527): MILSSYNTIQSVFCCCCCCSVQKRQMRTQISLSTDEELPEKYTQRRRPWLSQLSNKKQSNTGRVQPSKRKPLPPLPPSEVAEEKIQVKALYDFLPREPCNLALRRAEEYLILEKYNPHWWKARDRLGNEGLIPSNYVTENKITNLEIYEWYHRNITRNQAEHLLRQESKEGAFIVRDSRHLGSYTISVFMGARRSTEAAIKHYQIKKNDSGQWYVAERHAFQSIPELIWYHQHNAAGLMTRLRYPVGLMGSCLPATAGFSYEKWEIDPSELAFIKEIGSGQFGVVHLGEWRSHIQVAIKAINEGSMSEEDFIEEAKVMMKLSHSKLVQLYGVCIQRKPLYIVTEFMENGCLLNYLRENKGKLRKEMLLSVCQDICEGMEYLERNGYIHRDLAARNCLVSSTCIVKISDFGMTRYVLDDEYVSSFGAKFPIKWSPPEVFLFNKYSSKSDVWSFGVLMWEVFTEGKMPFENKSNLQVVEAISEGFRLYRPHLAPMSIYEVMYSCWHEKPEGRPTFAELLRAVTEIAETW

Abl(M351T)(h) = Abl(M351T)(h) (Homo sapiens, UniProt P00519, M351T)
CaMKIIδ(h) = CaMKIIδ(h) (Homo sapiens, UniProt Q13557)
Sequence of CaMKIIδ(h) (Q13557 whole entry): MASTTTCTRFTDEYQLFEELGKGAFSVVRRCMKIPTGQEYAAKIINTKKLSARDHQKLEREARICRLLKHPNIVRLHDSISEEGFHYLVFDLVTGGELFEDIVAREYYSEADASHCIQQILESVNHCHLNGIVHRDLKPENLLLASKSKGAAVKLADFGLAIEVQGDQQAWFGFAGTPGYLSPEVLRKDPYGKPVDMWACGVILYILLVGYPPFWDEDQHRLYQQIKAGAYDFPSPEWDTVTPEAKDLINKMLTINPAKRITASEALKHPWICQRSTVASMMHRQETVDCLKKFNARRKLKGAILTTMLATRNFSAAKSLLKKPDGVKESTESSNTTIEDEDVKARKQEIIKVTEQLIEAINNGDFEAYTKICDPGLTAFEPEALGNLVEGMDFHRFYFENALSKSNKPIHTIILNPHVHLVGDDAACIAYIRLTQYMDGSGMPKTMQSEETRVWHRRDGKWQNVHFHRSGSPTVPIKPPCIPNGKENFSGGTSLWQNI

MSK1(h) = MSK1(h) (Homo sapiens, UniProt O75582)
Sequence of MSK1(h) (O75582 whole entry): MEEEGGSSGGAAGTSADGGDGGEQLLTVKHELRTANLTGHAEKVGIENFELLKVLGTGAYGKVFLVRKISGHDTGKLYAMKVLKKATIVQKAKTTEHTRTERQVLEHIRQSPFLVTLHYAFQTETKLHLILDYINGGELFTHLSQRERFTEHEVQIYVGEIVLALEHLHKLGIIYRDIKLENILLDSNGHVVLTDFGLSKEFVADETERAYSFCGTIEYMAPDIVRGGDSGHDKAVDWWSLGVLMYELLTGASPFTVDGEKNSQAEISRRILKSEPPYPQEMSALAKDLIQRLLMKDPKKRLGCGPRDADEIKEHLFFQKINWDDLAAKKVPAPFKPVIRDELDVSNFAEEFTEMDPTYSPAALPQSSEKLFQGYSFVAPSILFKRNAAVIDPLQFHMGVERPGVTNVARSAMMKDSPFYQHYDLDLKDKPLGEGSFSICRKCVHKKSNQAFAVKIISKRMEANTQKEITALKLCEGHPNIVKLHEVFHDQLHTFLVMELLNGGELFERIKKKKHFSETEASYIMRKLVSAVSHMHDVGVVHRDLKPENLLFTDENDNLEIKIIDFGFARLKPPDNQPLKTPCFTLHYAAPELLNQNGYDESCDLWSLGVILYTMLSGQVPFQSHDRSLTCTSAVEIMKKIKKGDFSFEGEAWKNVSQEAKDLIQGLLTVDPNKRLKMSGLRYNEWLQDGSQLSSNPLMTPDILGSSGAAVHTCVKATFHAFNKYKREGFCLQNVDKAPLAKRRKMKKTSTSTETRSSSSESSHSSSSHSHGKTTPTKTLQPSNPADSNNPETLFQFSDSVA

CHK2(I157T)(h) = CHK2(I157T)(h) (Homo sapiens, UniProt O96017, I157T)
Sequence of CHK2(I157T)(h) (O96017 whole entry I157T): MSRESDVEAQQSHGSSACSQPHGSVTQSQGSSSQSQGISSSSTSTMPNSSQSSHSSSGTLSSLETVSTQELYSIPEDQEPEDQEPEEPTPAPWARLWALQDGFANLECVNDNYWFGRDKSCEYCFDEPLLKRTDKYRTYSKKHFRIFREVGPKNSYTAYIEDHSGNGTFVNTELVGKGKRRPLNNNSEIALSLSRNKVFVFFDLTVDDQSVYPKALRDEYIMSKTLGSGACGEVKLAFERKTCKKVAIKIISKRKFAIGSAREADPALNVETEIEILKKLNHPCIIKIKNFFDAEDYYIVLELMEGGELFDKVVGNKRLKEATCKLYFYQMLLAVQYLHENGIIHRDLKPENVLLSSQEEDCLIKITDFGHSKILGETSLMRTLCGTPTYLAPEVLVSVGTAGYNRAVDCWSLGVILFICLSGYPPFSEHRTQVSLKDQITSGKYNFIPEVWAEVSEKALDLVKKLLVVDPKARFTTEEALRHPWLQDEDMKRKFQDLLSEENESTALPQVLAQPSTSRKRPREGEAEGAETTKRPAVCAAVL

Sequence of CK1δ(h) (P48730 whole entry): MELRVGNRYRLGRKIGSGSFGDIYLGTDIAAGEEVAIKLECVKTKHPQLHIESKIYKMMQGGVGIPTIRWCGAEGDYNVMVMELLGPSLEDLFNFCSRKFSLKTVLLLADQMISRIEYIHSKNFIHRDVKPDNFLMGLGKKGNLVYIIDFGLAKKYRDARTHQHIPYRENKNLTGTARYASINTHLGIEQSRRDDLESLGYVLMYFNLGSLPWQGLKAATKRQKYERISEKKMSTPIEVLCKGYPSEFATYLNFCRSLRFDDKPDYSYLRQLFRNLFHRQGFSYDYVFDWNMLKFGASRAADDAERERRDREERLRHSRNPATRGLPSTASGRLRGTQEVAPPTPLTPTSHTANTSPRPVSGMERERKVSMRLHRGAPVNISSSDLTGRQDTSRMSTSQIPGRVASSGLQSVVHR
Sequence of FGFR3(h) (P22607 23-806): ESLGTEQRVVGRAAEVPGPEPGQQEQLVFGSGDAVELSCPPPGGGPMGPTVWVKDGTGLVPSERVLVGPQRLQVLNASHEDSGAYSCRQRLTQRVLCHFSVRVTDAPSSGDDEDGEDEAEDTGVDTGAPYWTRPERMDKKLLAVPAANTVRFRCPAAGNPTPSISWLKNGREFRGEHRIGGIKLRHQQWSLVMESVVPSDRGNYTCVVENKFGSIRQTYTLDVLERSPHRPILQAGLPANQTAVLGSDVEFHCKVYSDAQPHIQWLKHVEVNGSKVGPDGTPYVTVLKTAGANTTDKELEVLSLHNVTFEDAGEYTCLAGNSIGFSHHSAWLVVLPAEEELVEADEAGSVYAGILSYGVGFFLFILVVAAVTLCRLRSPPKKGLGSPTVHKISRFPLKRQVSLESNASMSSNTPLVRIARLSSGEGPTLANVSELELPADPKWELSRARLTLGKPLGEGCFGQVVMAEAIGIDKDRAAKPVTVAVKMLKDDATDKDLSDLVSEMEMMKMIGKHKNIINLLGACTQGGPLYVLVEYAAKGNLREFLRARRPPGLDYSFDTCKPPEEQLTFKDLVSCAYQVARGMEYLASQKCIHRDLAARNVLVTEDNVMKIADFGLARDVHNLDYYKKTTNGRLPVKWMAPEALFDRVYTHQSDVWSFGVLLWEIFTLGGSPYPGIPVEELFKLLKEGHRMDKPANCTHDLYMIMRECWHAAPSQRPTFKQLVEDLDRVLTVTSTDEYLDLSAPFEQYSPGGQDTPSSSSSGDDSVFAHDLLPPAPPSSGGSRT

## CC(C)CCC(=O)[C@]1(O)C(O)=C(C(=O)C(C)C)C(=O)[C@H]1CCC(C)C [TH2, tetrahydroiso-cohumulone]
FGFR3(h); 1 μg/ml
  kinase inhibition: 94% of control
FGFR3(h); 5 μg/ml
  kinase inhibition: 92% of control
FGFR3(h); 25 μg/ml
  kinase inhibition: 67% of control
FGFR3(h); 50 μg/ml
  kinase inhibition: 64% of control
FGFR3(h); 100 μg/ml
  kinase inhibition: 51% of control
CK1δ(h); 1 μg/ml
  kinase inhibition: 105% of control
CK1δ(h); 5 μg/ml
  kinase inhibition: 112% of control
CK1δ(h); 25 μg/ml
  kinase inhibition: 108% of control
CK1δ(h); 50 μg/ml
  kinase inhibition: 80% of control
CK1δ(h); 100 μg/ml
  kinase inhibition: 53% of control
Ron(h); 1 μg/ml
  kinase inhibition: 123% of control
Ron(h); 5 μg/ml
  kinase inhibition: 124% of control
Ron(h); 25 μg/ml
  kinase inhibition: 123% of control
Ron(h); 50 μg/ml
  kinase inhibition: 116% of control
Ron(h); 100 μg/ml
  kinase inhibition: 94% of control
Flt4(h); 1 μg/ml
  kinase inhibition: 117% of control
Flt4(h); 5 μg/ml
  kinase inhibition: 113% of control
Flt4(h); 25 μg/ml
  kinase inhibition: 88% of control
Flt4(h); 50 μg/ml
  kinase inhibition: 80% of control
Flt4(h); 100 μg/ml
  kinase inhibition: 55% of control
PKG1α(h); 1 μg/ml
  kinase inhibition: 103% of control
PKG1α(h); 5 μg/ml
  kinase inhibition: 112% of control
PKG1α(h); 25 μg/ml
  kinase inhibition: 97% of control
PKG1α(h); 50 μg/ml
  kinase inhibition: 92% of control
PKG1α(h); 100 μg/ml
  kinase inhibition: 73% of control
JNK3(h); 1 μg/ml
  kinase inhibition: 110% of control
JNK3(h); 5 μg/ml
  kinase inhibition: 108% of control
JNK3(h); 25 μg/ml
  kinase inhibition: 80% of control
JNK3(h); 50 μg/ml
  kinase inhibition: 92% of control
JNK3(h); 100 μg/ml
  kinase inhibition: 88% of control
TrkA(h); 1 μg/ml
  kinase inhibition: 110% of control
TrkA(h); 5 μg/ml
  kinase inhibition: 111% of control
TrkA(h); 25 μg/ml
  kinase inhibition: 99% of control
TrkA(h); 50 μg/ml
  kinase inhibition: 31% of control
TrkA(h); 100 μg/ml
  kinase inhibition: 25% of control
Txk(h); 1 μg/ml
  kinase inhibition: 114% of control
Txk(h); 5 μg/ml
  kinase inhibition: 121% of control
Txk(h); 25 μg/ml
  kinase inhibition: 121% of control
Txk(h); 50 μg/ml
  kinase inhibition: 110% of control
Txk(h); 100 μg/ml
  kinase inhibition: 107% of control
Abl(M351T)(h); 1 μg/ml
  kinase inhibition: 92% of control
Abl(M351T)(h); 5 μg/ml
  kinase inhibition: 95% of control
Abl(M351T)(h); 25 μg/ml
  kinase inhibition: 89% of control
Abl(M351T)(h); 50 μg/ml
  kinase inhibition: 75% of control
Abl(M351T)(h); 100 μg/ml
  kinase inhibition: 56% of control
CaMKIIδ(h); 1 μg/ml
  kinase inhibition: 99% of control
CaMKIIδ(h); 5 μg/ml
  kinase inhibition: 99% of control
CaMKIIδ(h); 25 μg/ml
  kinase inhibition: 100% of control
CaMKIIδ(h); 50 μg/ml
  kinase inhibition: 91% of control
CaMKIIδ(h); 100 μg/ml
  kinase inhibition: 87% of control
MSK1(h); 1 μg/ml
  kinase inhibition: 98% of control
MSK1(h); 5 μg/ml
  kinase inhibition: 103% of control
MSK1(h); 25 μg/ml
  kinase inhibition: 92% of control
MSK1(h); 50 μg/ml
  kinase inhibition: 64% of control
MSK1(h); 100 μg/ml
  kinase inhibition: 52% of control
CHK2(I157T)(h); 1 μg/ml
  kinase inhibition: 108% of control
CHK2(I157T)(h); 5 μg/ml
  kinase inhibition: 104% of control
CHK2(I157T)(h); 25 μg/ml
  kinase inhibition: 94% of control
CHK2(I157T)(h); 50 μg/ml
  kinase inhibition: 83% of control
CHK2(I157T)(h); 100 μg/ml
  kinase inhibition: 74% of control
